Measured values reported in PubChem BioAssay AID540265 (Sanford-Burnham Center for Chemical Genomics, 2011).
Activity calls are given as the source filed them. The rule behind the calls is not given here.

Target: Intestinal-type alkaline phosphatase (Homo sapiens) (UniProt P09923)
Experiment: human IAP enzyme inhibitors, SAR follow-up, biochemical, luminescence, set 2 (AID 540265)
Details: purified human IAP, luminescent substrate read-out

Sequence of Intestinal-type alkaline phosphatase (Homo sapiens) (P09923 whole entry, looked up): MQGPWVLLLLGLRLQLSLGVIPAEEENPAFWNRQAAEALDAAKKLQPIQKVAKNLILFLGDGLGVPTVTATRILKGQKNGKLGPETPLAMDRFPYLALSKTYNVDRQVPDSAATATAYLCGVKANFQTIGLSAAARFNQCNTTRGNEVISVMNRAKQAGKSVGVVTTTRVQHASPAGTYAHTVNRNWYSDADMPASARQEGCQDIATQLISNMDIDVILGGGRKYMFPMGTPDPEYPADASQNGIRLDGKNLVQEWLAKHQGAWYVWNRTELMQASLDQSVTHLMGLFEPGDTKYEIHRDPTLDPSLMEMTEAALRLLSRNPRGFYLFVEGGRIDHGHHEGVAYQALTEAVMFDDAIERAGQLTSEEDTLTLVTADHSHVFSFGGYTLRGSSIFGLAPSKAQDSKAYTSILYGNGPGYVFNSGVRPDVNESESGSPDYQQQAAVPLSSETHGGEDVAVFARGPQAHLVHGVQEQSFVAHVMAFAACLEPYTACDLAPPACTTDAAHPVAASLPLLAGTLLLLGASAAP

Row | SMILES | IC50
1 | Cc1ccc(C)c(NC(=O)CCNS(=O)(=O)c2ccc3[nH]c(=O)oc3c2)c1 | > 100 µM (inactive)
2 | N#Cc1ccc(CNC(=O)CCNS(=O)(=O)c2ccc3[nH]c(=O)oc3c2)cc1 | > 100 µM (inactive)
3 | COc1ccc(NC(=O)CNS(=O)(=O)c2ccc3[nH]c(=O)oc3c2)cc1OC | > 100 µM (inactive)

The remaining lines, values ahead:

Row | IC50 | SMILES
4 | > 100 µM (inactive) | O=C(CNS(=O)(=O)c1ccc2[nH]c(=O)oc2c1)NCc1ccc2c(c1)OCO2
5 | > 100 µM (inactive) | O=C(CNS(=O)(=O)c1ccc2[nH]c(=O)oc2c1)Nc1ccc2c(c1)OCO2
